Assay results as given in ChEMBL document CHEMBL1201862, “PubChem BioAssay data set” (2004).
Active and inactive are the calls of the source.

Columns and labels:
[1] = target: T1, Neuropeptide Y receptor type 2 (Homo sapiens, UniProt P49146); assay: Fluorescence-based counterscreen for agonists of NPY-Y1: cell-based high-throughput dose response assay for agonists of NPY-Y2.; type: functional
T1 sequence (P49146 whole entry): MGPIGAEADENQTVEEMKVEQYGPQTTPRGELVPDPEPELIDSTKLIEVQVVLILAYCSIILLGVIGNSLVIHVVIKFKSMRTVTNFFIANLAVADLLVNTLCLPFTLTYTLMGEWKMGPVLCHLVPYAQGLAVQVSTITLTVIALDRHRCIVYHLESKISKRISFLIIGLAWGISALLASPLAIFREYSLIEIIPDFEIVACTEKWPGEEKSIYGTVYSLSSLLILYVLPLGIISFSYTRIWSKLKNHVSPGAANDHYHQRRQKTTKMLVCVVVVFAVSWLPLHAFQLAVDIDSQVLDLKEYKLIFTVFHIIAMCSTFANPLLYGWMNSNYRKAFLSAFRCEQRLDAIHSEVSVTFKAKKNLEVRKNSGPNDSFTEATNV

[2] = system: HEK293; assay: Fluorescence-based counterscreen for potentiators or agonists of NPY-Y1: cell-based high-throughput dose response assay for inhibitors of cyclic nucleotide gated ion channel (CNGC) activity. In this assay, the parental HEK293 cell line transfected with a cyclic-nucleotide gated ion channel (CNGC)-based cAMP sensor is used to measure inhibition of isoproterenol-induced CNGC …; type: functional; conditions: Homo sapiens
[3] = target: T2, Neuropeptide Y receptor type 1 (Homo sapiens, UniProt P25929); assay: Fluorescence-based dose response cell-based high-throughput screening assay for agonists of NPY-Y1. [Related pubchem assays: 1697 (Screening assay (NPY-Y1 agonists).), 1359 (Screening assay (NPY-Y2 potentiators or agonists).), 1304 (Screening assay (NPY-Y1 potentiators or agonists).), 1704 (Screening assay (CNGC inhibitors).), 1791 (Summary AID.)]; type: functional
T2 sequence (P25929 whole entry): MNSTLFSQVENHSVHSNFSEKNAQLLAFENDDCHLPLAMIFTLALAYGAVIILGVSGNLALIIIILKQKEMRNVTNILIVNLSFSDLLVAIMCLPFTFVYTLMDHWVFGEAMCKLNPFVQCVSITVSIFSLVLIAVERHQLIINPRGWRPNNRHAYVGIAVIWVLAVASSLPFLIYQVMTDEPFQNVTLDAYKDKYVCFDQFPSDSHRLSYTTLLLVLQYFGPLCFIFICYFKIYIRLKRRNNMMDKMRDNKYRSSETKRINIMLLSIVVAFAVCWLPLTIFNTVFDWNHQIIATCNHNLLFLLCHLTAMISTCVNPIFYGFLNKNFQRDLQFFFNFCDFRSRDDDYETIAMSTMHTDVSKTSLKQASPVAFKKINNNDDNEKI

[4] = target: T3, Endoribonuclease toxin MazF (Escherichia coli K-12, UniProt P0AE70); assay: MazEF toxin-antitoxin RNase activation – biochemical, fluorescence, single-stranded RNA substrate, SAR follow-up (AID 588603); type: functional
T3 sequence (P0AE70 whole entry): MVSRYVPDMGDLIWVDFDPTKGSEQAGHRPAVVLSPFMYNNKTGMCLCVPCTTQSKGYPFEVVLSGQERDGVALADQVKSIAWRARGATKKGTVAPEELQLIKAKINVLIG

[5] = target: T3, Endoribonuclease toxin MazF; assay: activation of MazEF endoribonuclease cleavage – biochemical, fluorescence, single-stranded RNA substrate, uHTS hits, dose response (AID 588481); type: functional
[6] = system: MEF; assay: SAR analysis of small molecule cytotoxicity of MazEF TA System activators in embryonic fibroblast (MEF) cells. [Related pubchem assays (depositor defined):AID504720, AID504743]; type: functional; conditions: Mus musculus
[7] = target: T3, Endoribonuclease toxin MazF; assay: SAR analysis of small molecule activators of the MazEF TA System via a fluorescence-based single-stranded RNase assay counterscreen. [Related pubchem assays (depositor defined):AID504720, AID504743]; type: functional
[8] = target: T3, Endoribonuclease toxin MazF; assay: substrate-only fluorescence increase artefacts – biochemical, single-stranded RNase substrate, counter-screen for MazEF activator project, dose response (AID 588502); type: functional
[9] = target: Nonstructural protein 1 (Influenza A virus, UniProt Q194T2); type: functional, Influenza A virus (A/California/07/2009(H1N1))
[10] = target: DNA topoisomerase (Yersinia pestis, UniProt A0A2S9PM60); assay: Yersinia topoisomerase I cleavage product accumulation – biochemical, cherry-pick, dose response (AID 588525)
[11] = viability loss in HeLa cells – cytotoxicity control for MgcRacGAP inhibitor project, dose response (AID 624300); type: functional
[12] = target: T4, Rac GTPase-activating protein 1 (Homo sapiens, UniProt Q9H0H5); assay: blockers of MgcRacGAP-driven Rac1 GTP hydrolysis – biochemical, ADP Hunter fluorescence, primary and confirmatory, confirmation (AID 624330); type: functional
T4 sequence (Q9H0H5 whole entry): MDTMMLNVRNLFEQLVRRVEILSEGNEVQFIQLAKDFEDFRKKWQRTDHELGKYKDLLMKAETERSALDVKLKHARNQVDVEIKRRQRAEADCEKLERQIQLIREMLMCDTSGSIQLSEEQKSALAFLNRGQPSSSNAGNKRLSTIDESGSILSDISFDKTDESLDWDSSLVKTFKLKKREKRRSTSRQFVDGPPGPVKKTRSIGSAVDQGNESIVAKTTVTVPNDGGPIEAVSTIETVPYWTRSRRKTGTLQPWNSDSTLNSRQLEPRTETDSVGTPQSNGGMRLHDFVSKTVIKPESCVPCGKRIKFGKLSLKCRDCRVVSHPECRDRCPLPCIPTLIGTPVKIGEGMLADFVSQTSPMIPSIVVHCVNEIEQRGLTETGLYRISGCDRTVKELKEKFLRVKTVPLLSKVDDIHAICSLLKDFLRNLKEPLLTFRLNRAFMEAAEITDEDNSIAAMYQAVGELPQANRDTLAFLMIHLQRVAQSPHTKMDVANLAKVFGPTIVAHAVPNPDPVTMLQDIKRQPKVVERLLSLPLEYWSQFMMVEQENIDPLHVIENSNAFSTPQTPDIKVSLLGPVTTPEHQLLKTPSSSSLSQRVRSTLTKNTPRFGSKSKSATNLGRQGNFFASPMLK

[13] = target: T5, Histone-lysine N-methyltransferase NSD2 (Homo sapiens, UniProt O96028); type: biochemical
T5 sequence (O96028 whole entry): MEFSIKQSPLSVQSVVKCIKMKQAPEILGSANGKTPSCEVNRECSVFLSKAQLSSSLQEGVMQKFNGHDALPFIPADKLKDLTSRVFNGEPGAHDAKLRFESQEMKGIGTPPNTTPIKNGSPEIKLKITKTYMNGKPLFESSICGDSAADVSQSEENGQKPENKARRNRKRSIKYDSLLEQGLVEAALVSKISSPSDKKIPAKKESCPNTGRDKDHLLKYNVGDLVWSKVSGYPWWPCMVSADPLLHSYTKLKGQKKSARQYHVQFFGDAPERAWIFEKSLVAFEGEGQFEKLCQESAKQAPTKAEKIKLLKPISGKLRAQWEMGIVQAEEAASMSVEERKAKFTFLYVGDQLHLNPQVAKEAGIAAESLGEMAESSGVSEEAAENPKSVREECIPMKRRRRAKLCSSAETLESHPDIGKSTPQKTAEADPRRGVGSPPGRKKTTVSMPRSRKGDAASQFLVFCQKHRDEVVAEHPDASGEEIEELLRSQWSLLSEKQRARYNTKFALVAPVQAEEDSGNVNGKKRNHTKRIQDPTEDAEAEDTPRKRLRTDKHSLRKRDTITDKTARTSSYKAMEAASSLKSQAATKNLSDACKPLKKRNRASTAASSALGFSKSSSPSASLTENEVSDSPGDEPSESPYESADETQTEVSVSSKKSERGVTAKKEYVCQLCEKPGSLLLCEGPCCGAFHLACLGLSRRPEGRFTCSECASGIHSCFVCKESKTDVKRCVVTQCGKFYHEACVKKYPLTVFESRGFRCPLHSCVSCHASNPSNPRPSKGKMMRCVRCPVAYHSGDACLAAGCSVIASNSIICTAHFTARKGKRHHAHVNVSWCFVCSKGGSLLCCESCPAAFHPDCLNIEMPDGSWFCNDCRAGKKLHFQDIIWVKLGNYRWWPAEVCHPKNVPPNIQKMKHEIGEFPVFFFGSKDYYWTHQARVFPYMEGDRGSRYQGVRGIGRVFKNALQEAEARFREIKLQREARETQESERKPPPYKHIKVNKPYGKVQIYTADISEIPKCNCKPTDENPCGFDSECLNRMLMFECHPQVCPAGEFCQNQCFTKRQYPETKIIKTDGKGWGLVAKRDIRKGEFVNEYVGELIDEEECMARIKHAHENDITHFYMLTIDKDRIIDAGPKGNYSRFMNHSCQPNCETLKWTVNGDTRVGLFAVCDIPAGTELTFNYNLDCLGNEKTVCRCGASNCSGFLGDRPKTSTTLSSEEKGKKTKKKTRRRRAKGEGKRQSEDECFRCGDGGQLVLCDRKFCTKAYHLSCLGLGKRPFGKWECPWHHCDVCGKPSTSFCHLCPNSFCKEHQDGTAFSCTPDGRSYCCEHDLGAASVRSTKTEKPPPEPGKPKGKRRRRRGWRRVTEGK

DNA topoisomerase, sequence (A0A2S9PM60 whole entry): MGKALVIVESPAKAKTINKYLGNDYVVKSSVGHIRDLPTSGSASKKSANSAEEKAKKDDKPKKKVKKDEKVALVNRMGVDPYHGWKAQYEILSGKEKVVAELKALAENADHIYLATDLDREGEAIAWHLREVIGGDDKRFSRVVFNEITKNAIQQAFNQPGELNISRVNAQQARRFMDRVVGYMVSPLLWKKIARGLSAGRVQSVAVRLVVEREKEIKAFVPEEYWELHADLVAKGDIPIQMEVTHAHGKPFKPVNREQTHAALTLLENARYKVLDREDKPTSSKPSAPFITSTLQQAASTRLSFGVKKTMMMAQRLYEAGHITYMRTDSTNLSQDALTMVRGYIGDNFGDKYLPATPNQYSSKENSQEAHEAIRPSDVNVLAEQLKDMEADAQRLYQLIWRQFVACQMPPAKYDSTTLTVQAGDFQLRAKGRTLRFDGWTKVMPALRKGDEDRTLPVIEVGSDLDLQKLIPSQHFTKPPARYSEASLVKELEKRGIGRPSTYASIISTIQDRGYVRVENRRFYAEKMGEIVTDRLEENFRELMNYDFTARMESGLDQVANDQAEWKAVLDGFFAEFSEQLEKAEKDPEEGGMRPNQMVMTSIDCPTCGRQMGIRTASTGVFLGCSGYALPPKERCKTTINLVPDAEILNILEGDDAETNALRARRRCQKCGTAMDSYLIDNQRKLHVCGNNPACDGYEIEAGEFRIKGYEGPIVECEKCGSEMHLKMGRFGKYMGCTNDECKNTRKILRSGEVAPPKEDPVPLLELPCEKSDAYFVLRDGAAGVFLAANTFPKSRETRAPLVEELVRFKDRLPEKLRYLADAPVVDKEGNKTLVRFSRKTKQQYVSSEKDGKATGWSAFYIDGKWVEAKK
Nonstructural protein 1, sequence (Q194T2 whole entry): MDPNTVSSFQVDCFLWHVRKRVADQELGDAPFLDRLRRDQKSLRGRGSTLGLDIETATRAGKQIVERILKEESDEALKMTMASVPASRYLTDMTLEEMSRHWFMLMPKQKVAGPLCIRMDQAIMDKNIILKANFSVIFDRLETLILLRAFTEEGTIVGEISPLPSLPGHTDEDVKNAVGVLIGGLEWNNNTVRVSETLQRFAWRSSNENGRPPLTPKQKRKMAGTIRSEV

Compound	EC50 [1]	IC50 [2]	EC50 [3]	EC50 [4]	EC50 [5]	CC50 [6]	EC50 [7]	EC50 [8]	IC50 [9]	AC50 [10]	CC50 [11]	IC50 [12]	AC50 [13]
O=C(Nc1ccc(Cl)cc1Cl)NC1CCN(S(=O)(=O)c2ccc(F)cc2)CC1	6.58 µM (active)	4.36 µM (active)	7.41 µM (active)	26.9 µM (inactive)	7.09 µM (active)	11.8 µM (active)	> 99 µM (inactive)	> 99 µM (inactive)	–	–	–	–	–
COc1cccc2c1C(=N)c1c(O)c3c(c(O)c1C2=O)C[C@@](O)(C(C)=O)C[C@@H]3O[C@H]1C[C@H](N)[C@H](O)[C@H](C)O1	–	–	–	–	–	–	–	–	11.2 µM (active)	4.44 µM (active)	35.4 µM (active)	50.8 µM (active)	11.5 µM (active)
